Measurements reported in ChEMBL document CHEMBL3745611 (J Med Chem, 2015).
Converted amounts (≈) assume the structure as drawn. The source made the active and inactive calls. The rule behind the calls is not given here.

Legend:
[1] = target: T1, Transitional endoplasmic reticulum ATPase (Homo sapiens, UniProt P55072)
Description: Inhibition of human p97 ATPase incubated for 15 mins by ADP Glo luminescence assay

A549 [2] = assay: cells; details: Homo sapiens, A549, 72 h
Description: Cytotoxicity against human A549 cells assessed as cell viability after 72 hrs by Celltiter-Glo assay

[3] = target: T1, Transitional endoplasmic reticulum ATPase; assay: Inhibition of p97 ATPase in human A549 cells assessed as reduction in p62 protein incubated for 6 hrs by immunofluorescence assay; assay type: cell-based
[4] = Half life in mouse liver microsomes; assay type: ADME; details: for half-life: liver microsomes
[5] = Aqueous solubility of compound; assay type: physicochemical; details: aqueous medium
[6] = target: T1, Transitional endoplasmic reticulum ATPase; remark: listed apart in the source
Description: Inhibition of p97 ATPase in human A549 cells assessed as accumulation of K48 poly-ubiquitinated proteins incubated for 6 hrs by immunofluorescence assay

[7] = target: T1, Transitional endoplasmic reticulum ATPase; remark: listed apart in the source
Description: Inhibition of p97 ATPase in human A549 cells assessed as accumulation of CHOP poly-ubiquitinated proteins incubated for 6 hrs by immunofluorescence assay

HCT-116 [8] = assay: Antitumor activity against human HCT116 cells xenografted in nude mouse assessed as tumor growth inhibition at 50 mg/kg, po q2d for 12 days; assay type: functional, organism-based
Plasma = assay: Drug uptake in plasma of mouse xenografted with human A549 cells at 150 mg/kg, po measured at 2 to 24 hrs; assay type: ADME, organism-based; details: in vivo
A549 [9] = assay: Drug uptake in human A549 cells xenografted in mouse at 150 mg/kg, po measured at 2 to 24 hrs; assay type: ADME, organism-based; details: in vivo
A549 [10] = assay: Antitumor activity against human A549 cells xenografted in […] SCID beige mouse assessed as tumor growth inhibition at 1 mg/kg, iv administered twice per week; assay type: functional, organism-based
AMO1 = details: Homo sapiens
Description: Antitumor activity against human AMO1 cells xenografted in nude SCID beige mouse assessed as tumor growth inhibition at 1 mg/kg, iv administered twice per week

[11] = Metabolic stability of compound in mouse liver microsomes; assay type: ADME
HCT-116 [12] = assay: Antitumor activity against human HCT116 cells xenografted in nude mouse assessed as tumor growth inhibition at 300 mg/kg, po qd; assay type: functional, organism-based

T1 sequence (P55072 whole entry): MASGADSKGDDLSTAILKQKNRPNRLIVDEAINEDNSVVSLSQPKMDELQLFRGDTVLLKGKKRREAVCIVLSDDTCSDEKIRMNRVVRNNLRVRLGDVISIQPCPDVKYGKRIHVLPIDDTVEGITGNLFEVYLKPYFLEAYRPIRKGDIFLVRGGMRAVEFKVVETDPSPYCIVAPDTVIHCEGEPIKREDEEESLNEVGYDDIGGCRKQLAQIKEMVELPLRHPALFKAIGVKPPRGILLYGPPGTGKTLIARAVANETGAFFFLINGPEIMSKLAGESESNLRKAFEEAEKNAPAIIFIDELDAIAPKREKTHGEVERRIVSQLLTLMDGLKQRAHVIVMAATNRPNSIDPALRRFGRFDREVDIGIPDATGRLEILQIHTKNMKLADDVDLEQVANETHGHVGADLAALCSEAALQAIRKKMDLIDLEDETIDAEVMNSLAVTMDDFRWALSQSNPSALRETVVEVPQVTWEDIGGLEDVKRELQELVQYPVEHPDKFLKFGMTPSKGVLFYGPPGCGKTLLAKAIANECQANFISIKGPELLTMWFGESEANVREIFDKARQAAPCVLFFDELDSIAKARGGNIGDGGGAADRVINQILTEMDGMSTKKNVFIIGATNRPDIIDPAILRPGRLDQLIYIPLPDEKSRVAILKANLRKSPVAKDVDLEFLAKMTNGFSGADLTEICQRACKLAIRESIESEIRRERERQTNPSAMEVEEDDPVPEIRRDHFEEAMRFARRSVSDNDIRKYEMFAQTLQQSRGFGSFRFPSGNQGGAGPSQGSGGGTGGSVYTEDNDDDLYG

FC(F)(F)c1cc2ccccc2n1-c1nc2c(c(NCc3ccccc3)n1)CCCC2
IC50 [1]: 651 nM
IC50 (A549 [2]): > 40000 nM

Cc1cc2c(Cl)cccc2n1-c1nc2c(c(NCc3ccccc3)n1)CNCC2
IC50 [1]: 632 nM
IC50 (A549 [2]): 7240 nM

COc1cccc2c(NCc3ccccc3)nc(-n3c(N)nc(C)c3C)nc12
IC50 [1]: > 5000 nM

COc1cccc2c(CCc3ccccc3)nc(-n3c(N)nc4ccccc43)nc12
IC50 [1]: > 5000 nM

Cc1nc2ccccc2n1-c1nc2c(c(NCc3ccccc3)n1)CNCC2
IC50 [1]: > 5000 nM

COc1ccc2cc(C)n(-c3nc4c(c(NCc5ccccc5)n3)CNCC4)c2c1
IC50 [1]: > 5000 nM

Cc1cc2c(C(=O)N(C)C)cccc2n1-c1nc2c(c(NCc3ccccc3)n1)CNCC2
IC50 [1]: > 5000 nM

COc1cccc2c(NCc3ccccc3)nc(-n3cnc4ccccc43)nc12
IC50 [1]: > 5000 nM

Cc1cc2c(-c3nnn[nH]3)cccc2n1-c1nc2c(c(NCc3ccccc3)n1)CNCC2
IC50 [1]: 15 nM
IC50 (A549 [2]): > 40000 nM

COc1cccc2c(NC(C)c3ccccc3)nc(-n3c(N)nc4ccccc43)nc12 (configuration not stated)
IC50 [1]: > 5000 nM

COc1cccc2c(NCc3ccccc3)nc(-n3c(N)nc4ccccc43)nc12
IC50 ([3]; a549): Not Active
half-life [4]: 7 min
solubility [5]: < 1 µg/mL
IC50 [1]: 815 nM
IC50 [6]: 6140 nM
IC50 [7]: 6610 nM
IC50 (A549 [2]): 3260 nM

Cc1cc2c(C(=O)NC(C)C)cccc2n1-c1nc2c(c(NCc3ccccc3)n1)CNCC2
IC50 [1]: 4830 nM

Cc1cc2c(C(N)=O)cccc2n1-c1nc2c(c(NCc3ccccc3)n1)CCCC2
IC50 ([3]; read-out: IC50): 250 nM
TGI (HCT-116 [8]): Active
Drug uptake (Plasma): Active
Drug uptake (A549 [9]): Active
half-life [4]: 44 min
solubility [5]: 4 µg/mL (≈ 9.72 µM)
IC50 [1]: 6 nM
IC50 [6]: 500 nM
IC50 [7]: 580 nM
IC50 (A549 [2]): 590 nM

Cc1cc2c(F)cccc2n1-c1nc2c(c(NCc3ccccc3)n1)CNCC2
IC50 [1]: 342 nM
IC50 (A549 [2]): 6280 nM

CNc1nc2ccccc2n1-c1nc(NCc2ccccc2)c2cccc(OC)c2n1
IC50 [1]: 233 nM

COc1cccc2c(N(C)Cc3ccccc3)nc(-n3c(N)nc4ccccc43)nc12
IC50 [1]: > 5000 nM

Cc1ccc2c(c1)cc(C)n2-c1nc2c(c(NCc3ccccc3)n1)CNCC2
IC50 [1]: > 5000 nM

COc1cccc2c(NCc3ccccc3)nc(-n3c(N)nc4c3CCCC4)nc12
IC50 [1]: > 5000 nM

COc1cccc2c(Cc3ccccc3)nc(-n3c(N)nc4ccccc43)nc12
IC50 [1]: > 5000 nM

Nc1nc2ccccc2n1-c1nc2c(c(NCc3ccccc3)n1)CCCC2
IC50 [1]: 425 nM

COc1cccc2c(NCc3ccccc3)nc(Cn3c(C)nc4ccccc43)nc12
IC50 [1]: > 5000 nM

NCc1cc2ccccc2n1-c1nc2c(c(NCc3ccccc3)n1)CCCC2
IC50 [1]: 153 nM
IC50 (A549 [2]): 4700 nM

COc1nc2ccccc2n1-c1nc2c(c(NCc3ccccc3)n1)CNCC2
IC50 [1]: 3130 nM

COc1cc2ccccc2n1-c1nc2c(c(NCc3ccccc3)n1)CCCC2
IC50 [1]: 43 nM
IC50 (A549 [2]): 7110 nM

COc1cccc2c(NC(=O)c3ccccc3)nc(-n3c(N)nc4ccccc43)nc12
IC50 [1]: > 5000 nM

OCc1cc2ccccc2n1-c1nc2c(c(NCc3ccccc3)n1)CCCC2
IC50 [1]: 68 nM
IC50 (A549 [2]): 8400 nM

COc1nc2ccccc2n1-c1nc(NCc2ccccc2)c2ncsc2n1
IC50 [1]: 180 nM

COCCOc1cccc2c(NCc3ccccc3)nc(-n3c(C)nc4ccccc43)nc12
IC50 [1]: 304 nM

COc1cccc2c(NCc3ccccc3)nc(-n3c(N(C)C)nc4ccccc43)nc12
IC50 [1]: 227 nM

Cc1cc2c(C(N)=O)cccc2n1-c1nc2c(c(NCc3ccccc3)n1)CCOC2
IC50 (A549 [2]): 1070 nM

CC(C)C[C@H](NC(=O)[C@H](Cc1ccccc1)NC(=O)c1cnccn1)B(O)O
TGI (A549 [10]): inactive
TGI (AMO1): Active

CNC(=O)c1cccc2c1cc(C)n2-c1nc2c(c(NCc3ccccc3)n1)CNCC2
IC50 [1]: 215 nM
IC50 (A549 [2]): 6030 nM

Cc1nc2ccccn2c1-c1nc2c(c(NCc3ccccc3)n1)CCCC2
IC50 [1]: 248 nM
IC50 (A549 [2]): 18200 nM

COc1ccc2c(c1)cc(C)n2-c1nc2c(c(NCc3ccccc3)n1)CNCC2
IC50 [1]: > 5000 nM

Cc1[nH]c2ccccc2c1-c1nc2c(c(NCc3ccccc3)n1)CCCC2
IC50 [1]: 149 nM
IC50 (A549 [2]): 15800 nM

Cc1cc2ccccc2n1-c1nc2c(c(NCc3ccccc3)n1)CNCC2
IC50 ([3]; a549): Not Active
t1/2 ([4]; microsomes): Stable
solubility [5]: 750 µg/mL (≈ 2030 µM)
Stability [11]: Stable
IC50 [1]: 192 nM
IC50 [6]: 15300 nM
IC50 [7]: 9150 nM
IC50 (A549 [2]): 8640 nM

Cc1ccc2cc(C)n(-c3nc4c(c(NCc5ccccc5)n3)CNCC4)c2c1
IC50 [1]: 3860 nM

COc1cccc2c(NCc3ccccc3)nc(-n3c(OC)nc4ccccc43)nc12
IC50 [1]: 145 nM

COCCOc1cccc2c(NCc3ccccc3)nc(-n3c(N)nc4ccccc43)nc12
IC50 [1]: 907 nM

Nc1nc2ccccc2n1-c1nc2c(c(NCc3ccccc3)n1)CNCC2
IC50 [1]: > 5000 nM

Cc1cc2c(C(N)=O)cccc2n1-c1nc2c(c(NCc3ccccc3)n1)CCNC2
IC50 [1]: 71 nM
IC50 (A549 [2]): 2440 nM

Cc1nc2ccccc2n1-c1nc2c(c(NCc3ccccc3)n1)CCCC2
IC50 [1]: 98 nM

Cc1cc2ccccc2n1-c1nc2c(c(NCc3ccccc3)n1)CCCC2
IC50 [1]: 47 nM
IC50 (A549 [2]): 6530 nM

COc1cccc2c(NCc3ccccc3)nc(-n3c(=O)[nH]c4ccccc43)nc12
IC50 [1]: 1070 nM

COc1cccc2c1cc(C)n2-c1nc2c(c(NCc3ccccc3)n1)CNCC2
IC50 [1]: 2080 nM

COCCOc1cccc2c(NCc3ccccc3)nc(-n3c(OC)nc4ccccc43)nc12
IC50 [1]: 370 nM

Cc1cccc2c1cc(C)n2-c1nc2c(c(NCc3ccccc3)n1)CNCC2
IC50 [1]: 648 nM
IC50 (A549 [2]): 7850 nM

CCc1cc2ccccc2n1-c1nc2c(c(NCc3ccccc3)n1)CCCC2
IC50 [1]: 445 nM

CCc1nc2ccccc2n1-c1nc(NCc2ccccc2)c2cccc(OC)c2n1
IC50 [1]: > 5000 nM

Cc1nn2ccccc2c1-c1nc2c(c(NCc3ccccc3)n1)CCCC2
IC50 [1]: 367 nM
IC50 (A549 [2]): 25000 nM

COCc1cc2ccccc2n1-c1nc2c(c(NCc3ccccc3)n1)CCCC2
IC50 [1]: 795 nM
IC50 (A549 [2]): > 40000 nM

Cc1cc2cc(C#N)ccc2n1-c1nc2c(c(NCc3ccccc3)n1)CNCC2
IC50 [1]: > 5000 nM

Cc1cc2c(C(F)(F)F)cccc2n1-c1nc2c(c(NCc3ccccc3)n1)CNCC2
IC50 [1]: 3910 nM

COc1cccc2c(NCc3ccccc3)nc(-n3c(C)nc4ccccc43)nc12
IC50 [1]: 152 nM

Cc1cc2c(C(N)=O)cccc2n1-c1nc2c(c(NCc3ccccc3)n1)CNCC2
IC50 ([3]; read-out: IC50): 2000 nM
half-life [4]: 105 min
solubility [5]: 1260 µg/mL (≈ 3040 µM)
IC50 [1]: 40 nM
IC50 [6]: 1790 nM
IC50 [7]: 2860 nM
IC50 (A549 [2]): 2330 nM

Cc1cc2c(C#N)cccc2n1-c1nc2c(c(NCc3ccccc3)n1)CNCC2
IC50 [1]: 144 nM
IC50 (A549 [2]): 8920 nM

Cc1cc2ccc(C#N)cc2n1-c1nc2c(c(NCc3ccccc3)n1)CNCC2
IC50 [1]: 8910 nM

COc1nc2ccccc2n1-c1nc2c(c(NCc3ccccc3)n1)CCCC2
IC50 ([3]; read-out: IC50): 4840 nM
TGI (HCT-116 [12]): Active
half-life [4]: 11 min
solubility [5]: < 1 µg/mL
IC50 [1]: 76 nM
IC50 [6]: 4240 nM
IC50 [7]: 9340 nM
IC50 (A549 [2]): 7450 nM

Cc1cc2c(C(=O)O)cccc2n1-c1nc2c(c(NCc3ccccc3)n1)CNCC2
IC50 [1]: 95 nM
IC50 (A549 [2]): > 40000 nM

Nc1nc2ccccc2n1-c1nc(NCc2ccccc2)c2ccsc2n1
IC50 [1]: 3000 nM

COc1cccc2c(OCc3ccccc3)nc(-n3c(N)nc4ccccc43)nc12
IC50 [1]: > 5000 nM

COc1cccc2c(NCc3ccccc3)nc(-n3c(NC(C)=O)nc4ccccc43)nc12
IC50 [1]: > 5000 nM

COc1cccc2c(NCCc3ccccc3)nc(-n3c(N)nc4ccccc43)nc12
IC50 [1]: > 5000 nM

COc1cccc2c(NCc3ccccc3)nc(Nc3nc4ccccc4[nH]3)nc12
IC50 [1]: > 5000 nM
